According to ChEMBL document CHEMBL1221351, “Styrylpyrones from the medicinal fungus Phellinus baumii and their antioxidant properties” (Bioorg Med Chem Lett, 2010):
Calls of active or inactive are those of the source. The calls are words filed in the database; no cut-off is given here.

How the values were obtained:
Assay type in all cases: functional
[1] = Antioxidant activity assessed as inhibition of fenton reaction-induced pBR322 DNA single strand break by CAS assay
[2] = test system: Radical scavenging activity; test: Antioxidant activity assessed as DPPH radical scavenging activity
[3] = Antioxidant activity assessed as inhibition of fenton reaction-induced pBR322 DNA single strand break by agarose gel electrophoresis
[4] = Antioxidant activity assessed as ABTS radical scavenging activity

| Structure (SMILES) | Activity [1] | IC50 [2] | Activity [3] | IC50 [4] |
| --- | --- | --- | --- | --- |
| COC(=O)CC1=CC(=O)[C@H](c2c(O)cc(/C=C/c3ccc(O)c(O)c3)oc2=O)[C@@H](c2ccc(O)c(O)c2)O1 [BAUMIN] | Active | 7.5 µM | Active | 11.7 µM |
| CC1=CC(=O)[C@H](c2c(O)cc(/C=C/c3ccc(O)c(O)c3)oc2=O)[C@@H](c2ccc(O)c(O)c2)O1 [DAVALLIALACTONE] | Active | 1.2 µM | Active | 2.8 µM |
| O=c1cc(O)cc(/C=C/c2ccc(O)c(O)c2)o1 | Active |  | inactive |  |
| CC(=O)/C=C(O)/C(=C\c1ccc(O)c(O)c1)c1c(O)cc(/C=C/c2ccc(O)c(O)c2)oc1=O | Active |  | Active |  |
| O=c1oc2cc(/C=C/c3ccc(O)c(O)c3)oc(=O)c2c2cc(O)c(O)cc12 | Active |  | Active |  |
| CC1=CC(=O)C2(O1)c1c(cc(/C=C/c3ccc(O)c(O)c3)oc1=O)OC2c1ccc(O)c(O)c1 (stereo not drawn) | Active |  | Active |  |
| O=c1cc(O)cc([C@H]2c3c(cc(/C=C/c4ccc(O)c(O)c4)oc3=O)O[C@@H]2c2ccc(O)c(O)c2)o1 | Active |  | Active |  |
